Results on four compounds are retold here after patent EP2471783A1, “Novel polymorphic form of efavirenz” (Esteve Química, S.A., priority 2010, dated 2012).

A short description of data set [1]: Comparative and competitive slurry experiments (mixtures of forms, followed by powder X-ray diffraction). The format is physicochemical. The procedure:
Mixtures of Efavirenz form I with form III or form C were prepared according to table II. The suspensions were stirred at 20°C with small PTFE coated cross-shaped magnetic stirrers and samples taken after 1, 2 and 7 days, filtered, dried at ambient temperature under vacuum for 20 minutes and analyzed by powder X-ray diffraction.

The nature of data set [2]: Dissolution studies in heptane (solubility curve, dissolution point by turbidity). Conditions: for Dissolution Temperatures: in heptane, heating ramp 0.2°C/min, 10% reduction in turbidity; for solubility in heptane, compared between forms: temperature range studied 17-82°C. The class given is physicochemical. The method, then: To determine the solubility curve of a given polymorphic form, different concentrations in heptane were prepared and charged to a HEL multi-reactor, using 100 mL vessels. These reactors were equipped with 4-blade PTFE turbines, (set to 150 rpm), temperature probes and turbidity probes. Temperature was controlled by applying the same re-circulating heater-chiller unit to all vessel jackets and using individual temperature compensation by external heating plates below each vessel. Heating ramps of 0.2°C/min were applied to each vessel, and the dissolution point determined by a 10% reduction in turbidity. […] Table VI. Results for solubility in heptane

For data set [3] the following is noted: cited from earlier work.
Data set [4] is described as follows: Accelerated stability conditions. The class given is physicochemical. The source says: Thus, in one aspect, the present invention is directed to a polymorphic form C of Efavirenz characterized by an X-ray powder diffraction pattern which comprises characteristic 2θ values at: 7.1, 7.3, 11.0, 13.8, 14.2, 14.6, 19.1, 20.9, 21.2, 24.5 and 24.9 ± 0.2 degrees 2θ.

Data set [5] can be described thus: Dissolution studies in ethanol-water (volume of ethanol required for dissolution of an aqueous suspension). The format is physicochemical. Conditions: suspension in water 20 mL with DSS 0.02 g, 20°C, ethanol added at 0.2 mL/min, 50% reduction in turbidity. The procedure:
Dissolution experiments were performed for forms I, III and C of Efavirenz. To an aqueous suspension of each form, ethanol was added and the volume recorded in order for dissolution. Efavirenz is hydrophobic and has a tendency to float in water. To improve the dispersion of efavirenz in water, a surfactant was used, namely, docusate sodium (DSS), the dioctyl ester of sodium sulfosuccinate. DSS is a widely used pharmaceutical excipient and food additive. Efavirenz, polymorphic form and quantity as indicated in the table V, was suspended in water (milliQ, 20 mL) with DSS (docusate sodium, 0.02 g) in a 100 mL vessel. This mixture was placed in an ultrasonic batch for 5 minutes to break up any agglomerates and then the vessel was transferred to an automated (HEL) reaction block equipped with pitched 4-blade turbine PTFE agitators (set to 120 rpm), turbidity probes and syringe pumps. The temperature inside the vessels was controlled by jackets connected to a re-circulating heater-chiller unit. The mixtures were agitated at 20°C and turbidity probes adjusted before addition of ethanol at a continuous rate of 0.2 mL/min via the syringe pumps. The volume of ethanol required for dissolution was taken as that required for a 50% reduction in the turbidity reading. […]

Setting [6] is: slurry in ethanol/water, 20°C, samples after 1, 2 and 7 days.

Take `O=C1Nc2ccc(Cl)cc2[C@@](C#CC2CC2)(C(F)(F)F)O1` [Form I, (4S)-6-chloro-4-(cyclopropylethynyl)-4-(trifluoromethyl)-1,4-dihydro-2H-3,1-benzoxazin-2-one]: the “content of form I in a mixture of form I and form III” value in data set [1] (setting [6]) is “decreases with time, and after 7 days the mixture has converted completely to form III”. The “Dissolution Temperatures” value in data set [2] (concentration 0,010 g/mL) is 29 °C; in data set [2] (concentration 0,040 g/mL) it was 64 °C; in data set [2] (concentration 0,067 g/mL), 74 °C; in data set [2] (concentration 0,200 g/mL), 82 °C. For the same compound, the “solubility in heptane, compared between forms” value in data set [2] was “less soluble at high temperature”.
In the case of `O=C1Nc2ccc(Cl)cc2[C@@](C#CC2CC2)(C(F)(F)F)O1` [Efavirenz, (4S)-6-chloro-4-(cyclopropylethynyl)-4-(trifluoromethyl)-1,4-dihydro-2H-3,1-benzoxazin-2-one], the aqueous solubility entry in data set [3] is “extremely poor”.
As to `O=C1Nc2ccc(Cl)cc2[C@@](C#CC2CC2)(C(F)(F)F)O1` [Form III, (4S)-6-chloro-4-(cyclopropylethynyl)-4-(trifluoromethyl)-1,4-dihydro-2H-3,1-benzoxazin-2-one], the “Dissolution Temperatures” value in data set [2] (concentration 0,010 g/mL) is 31 °C; in data set [2] (concentration 0,040 g/mL), 55 °C; in data set [2] (concentration 0,067 g/mL) it was 62 °C; in data set [2] (concentration 0,180 g/mL), 75 °C. The “solubility in heptane, compared between forms” value in data set [2] is reported as “less soluble at low temperature”.
Take `O=C1Nc2ccc(Cl)cc2[C@@](C#CC2CC2)(C(F)(F)F)O1` [Form C, (4S)-6-chloro-4-(cyclopropylethynyl)-4-(trifluoromethyl)-1,4-dihydro-2H-3,1-benzoxazin-2-one]: the “conversion of form C into form I” value in data set [1] (form C in its pure form, without any contamination with form I) is given as “not observed”. Also, the “content of form C in a mixture of form I and form C” value in data set [1] (setting [6]) is listed as “decreases with time, although some still remains in the mixture after 7 days”; in data set [1] (slurry in methanol/water, 20°C, samples after 1, 2 and 7 days), “a similar trend is observed although the transformation is slower”. Further, the stability result in data set [4] (25°C and 60% relative humidity) is recorded as “stable during at least three months”; in data set [4] (40°C and 75% relative humidity) it was “stable during at least three months”. Moreover, the “volume of ethanol required to achieve dissolution, compared between forms” value in data set [5] is “consistently requires less volume of ethanol than forms I and III”. The “Dissolution Temperatures” value worked out at 17 °C in data set [2] (concentration 0,010 g/mL), 49 °C in data set [2] (concentration 0,040 g/mL), 56 °C in data set [2] (concentration 0,067 g/mL) and 71 °C in data set [2] (concentration 0,200 g/mL). The “solubility in heptane, compared between forms” value in data set [2] is “more soluble in heptane than forms I and III”.
